From US20110144040A1, “Acteoside and acteoside-rich plant extracts for increasing athletic performance in humans” (MN Intellectual Property Corp, LLC, priority 2009, published 2011)

What was measured:
[1] = tested on: athletic performance in humans; experiment: oral acteoside supplementation for athletic performance in exercising humans; type: in vivo, human; conditions: peroral, used according to recommended protocols
Text: Athletic performance is defined as any sporting activity where muscle strength and/or endurance are integral to individual performance, and is inclusive of both aerobic and anaerobic metabolic conditions. This includes active athletic competition, such as baseball, football, running, or Track & Field. It also includes any exercise activity designed to improve physical performance, directly or indirectly, via an improvement in muscle protein content (size), strength, and/or endurance, such as resistance training (circuit equipment, weight training), aerobics, Pilates, and/or calisthenics. Any improvement in athletic performance must include objective increases in speed, strength, muscle size (protein content), and/or endurance. It may also involve improved recovery from fatigue following exercise or athletic competition.
This includes an ability to increase muscle strength, muscle power, endurance, and muscle protein content (size), as well as to reduce fatigue and facilitate recovery following intense exercise or athletic competition. The benefits appear almost immediately in some cases, but are more likely to occur after several weeks of regular use of acteoside or extracts containing acteoside. […]
During the course of developing this invention, an effective oral daily dosage of acteoside to improve athletic performance was determined to be between 25 mg to 2,500 mg. […]

[2] = tested on: free-radical induced oxidative stress; conditions: J Pharm Pharmacol 2004 56(6) 743-8; cited from earlier work
[3] = tested on: prostaglandin biosynthesis; conditions: Arch Pharm Res 2006 29(6), 508-13; cited from earlier work

In the case of `C[C@@H]1O[C@@H](O[C@@H]2[C@@H](O)[C@H](OCCc3ccc(O)c(O)c3)O[C@H](CO)[C@H]2OC(=O)/C=C/c2ccc(O)c(O)c2)[C@H](O)[C@H](O)[C@H]1O` [acteoside], the improving athletic performance [1] is listed as “effective in-vivo peroral agents for improving athletic performance”, the “inhibition of free-radical induced oxidative stress” value [2] is listed as “strong inhibitor” and the “inhibition of prostaglandin biosynthesis” value [3] is listed as “strong inhibitor”.
